# From US6864356B2, “Sixteen amino acid of the antineoplastic protein (ANUP) as a pharmacologically active anti-tumor agent” (priority 1997, dated 2005)
# Non-standard residues stand in square brackets, D forms with d. No end group written: not given here. pGlu = O=C1CC[C@@H](C(=O)O)N1
# Legend:
# [1] = test system: human breast tumor cell line (MDA 231); experiment: in vitro antitumor (tumor killing) assay, neutral red dye, 96 well plates; type: cell-based; settings: MDA 231 cells
# Experimental: The antitumor activity of the peptide (P16) was assayed against the human breast tumor cell line (MDA 231) and its activity was compared to the in vitro antitumor effect of the “pure” protein (ANUP).
# The assay for the pharmacological antitumor activities were performed as follows utilizing 96 well plates—
# 20,300-30,000 human breast tumor cells in L-15 medium (200 μl) containing 2.5% fetal calf serum and 100 μg gentamycin per ml (complete medium) were incubated at 37° in air for 120 hours; after this incubation period 50 μl of serially diluted P16 and ANUP were added to each well. […] The solutions were diluted in complete medium containing 0.05% SDS to a concentration of 350 μg per ml.
# Dilution plates were prepared as follows:
# 100 μl of complete medium were added to each well and 50 μl of diluted P16 and ANUP were added to each well in row A thus 1.3 dilution was accomplished; 50 μl were serially diluted in the 100 μl of medium in rows B through H. Thus the range of concentrations were from 6 μg to 2 mg when 50 μl each dilution series were added to the 200 μl of the complete medium containing the MDA cells. The plates were incubated for an additional 96-120 hours. The medium was poured off and after a 90-minute incubation with 50 μl neutral red dye (0.5 ml neutral red (0.25% ethanol (0.6 ml) diluted 5.5 saline-0.16 mm HCl) the cells were washed twice with PBS (phosphate buffer saline) at room temperature. The concentration of living cells (since only living cells absorb the dye) was determined after adding 100 μl lysing buffer (50% ethanol in 0.05 m NaH2 PO4) the concentration of neutral red released in each well was determined using a Dynetech plate reader set at […]. A unit of activity was defined as the concentration of ANUP and P16 for 50% killing.
# tumor cells = settings: electron microscopy (Struve et al. 1990); cited from earlier work
substance,measurement,setting,value
"synthetic hexadeca peptide (16 L-amino acids), partial N-terminal sequence of ANUP: Pyroglu-Leu-Lys-Cys-Tyr-Thr-Cys-Lys-Glu-Pro-Met-Thr-Ser-Ala-Ala-Cys (SEQ ID NO: 1) ([pGlu]LKCYTCKEPMTSAAC; cysteine pairing not given here) [P16]",Fraction of the Activity relative to ANUP,[1]; + 0.005% SDS,0.04
same,Fraction of the Activity relative to ANUP,[1]; + 0.02% SDS,0.50
same,Fraction of the Activity relative to ANUP,[1]; + 0.05% SDS,0.50
same,antitumor activity in the absence of SDS,[1]; absence of SDS,neither the peptide nor the protein showed any antitumor activity
same,"activity compared to the protein (ANUP), molar basis",[1]; in vitro,about 50%
same,IC50,"[1]; medium containing SDS, 96-120 hours incubation, read-out: 50% end point (concentration for 50% killing)",22 nM
same,Fraction of the Activity relative to ANUP,[1]; no SDS,± no Activity
same,weight of peptide required relative to weight of protein (ANUP) for equal activity,[1]; weight basis,one tenth
same,effect on tumor cells by electron microscopy,tumor cells,complete degradation of the cells
